According to article PMC5381078, “Carboxylate derivatives of tributyltin (IV) complexes as anticancer and antileishmanial agents” (DARU Journal of Pharmaceutical Sciences, 2017):

How the values were obtained:
[1] = system: promastigotes of Leishmania tropica kwh 23; assay: Antileishmanial activity (MTT assay); type: cell-based; conditions: 72 h; for Antileishmanial % growth inhibition (mortality, lethality): 20 μg/mL; for Antileishmanial LC50: MTT
Experimental: Antileishmanial activity against the promastigotes of Leishmania tropica kwh 23 was evaluated by a quantitative colorimetric assay using 3-(4,5-dimethylthiazol-2-yl)-2, 5-diphenyl tetrazolium bromide (MTT) with minor modifications. […] […] Negative control wells contained 1% DMSO in PBS. All samples were run in triplicate. Afterwards, plates were incubated for 4 h at 24 °C with 20 μL of MTT (4 mg/mL in distilled water) to determine the cell viability. Supernatant from each well was carefully removed leaving behind formazan crystals. Colored formazan crystals were dissolved in 100 μL of DMSO by setting those aside for 1 h to ensure complete dissolution. Cell viability was estimated by measuring absorbance at 540 nm using microplate reader and percentage growth inhibition was calculated.

[2] = system: Leishmania tropica kwh 23 promastigotes; assay: ROS mediated antileishmanial activity (NaN3 / mannitol scavengers); type: cell-based; conditions: for Reduction of antileishmanial activity in the presence of NaN3: NaN3 0.1 mM; for Reduction of antileishmanial activity in the presence of mannitol: mannitol 1 mM
Experimental: Leishmania tropica kwh 23 promastigotes were treated in three groups. First group was exposed to samples along with 0.1 mM sodium azide (NaN3), second group to samples with 1 mM mannitol and third group comprised of all controls. In third group, promastigotes were treated in different wells with samples only (sample control), 1% DMSO in PBS only (negative control-I), amphotericin B only (positive control), 0.1 mM NaN3 only (negative control-II) and 1 mM mannitol only (negative control-III). Plates were incubated followed by MTT assay described above.

isolated lymphocytes = assay: Cytotoxicity against isolated lymphocytes (MTT assay); type: cell-based, human; conditions: 24 h; for Isolated lymphocytes % growth inhibition: 20 μg/mL
Experimental: Lymphocytes were isolated using previously described protocol with some modifications. Informed consent was obtained from volunteers and procedure was conducted according to international ethical guidelines after gaining approval from the ethical committee of the Quaid-i-Azam University. A volume of 3 mL of blood was obtained from a healthy donor by venipuncture and diluted (1:1) with PBS. It was layered over 2 mL Histopaque-1077 and centrifuged at 800 × g for 20 min. The buffy coat was aspirated into 5 mL of PBS and centrifuged at […] for 4 min to pellet the lymphocytes. The pellet was suspended in 1 mL of RPMI-1640 and cell density was adjusted to get 1 × 10^5 cells/mL. For cytotoxicity determination, 20 μL of samples (20 μg/mL) or vincristine or 1% DMSO in PBS and 180 μL of lymphocyte suspension were incubated in 96-well plate at 37 °C for 24 h in humidified 5% carbon dioxide incubator (Panasonic, Japan MCO-18 AC-PE). Phytohaemagglutinin (PHA) was added in medium to stimulate lymphocyte growth. Afterwards, MTT assay was done as described above. IC50 values were determined using 3-fold dilutions of the samples.

THP-1 cell line = assay: Cytotoxicity against THP-1 cell line (MTT assay); type: cell-based, human; conditions: 20 μg/mL, 72 h
Experimental: Cytotoxicity of tributyltin (IV) compounds against THP-1 cell line was determined by 3-(4,5-dimethylthiazol-2-yl)-2,5-diphenyl tetrazolium bromide (MTT) assay. THP-1 cells were cultured in complete growth medium comprising RPMI-1640 (pH 7.4) supplemented with 2.2 g/L NaHCO3 and 10% v/v heat inactivated fetal bovine serum (HIFBS). An aliquot of 20 μL of samples in 1% DMSO in PBS and 180 μL of THP-1 cells were mixed in 96-well plate. Cells were added at an assay density of 1 × 10^4 cells/mL whereas sample/standard was added to achieve the final concentration of 20 μg/mL. The plate was incubated at 37 °C for 72 h in humidified 5% carbon dioxide incubator (Panasonic, Japan MCO-18 AC-PE). Vincristine and 1% DMSO in PBS were used as positive and negative controls respectively. After incubation, 20 μL of pre-filter sterilized MTT solution (4 mg/mL in distilled water) was added in plates and incubated for 4 h at 37 °C in CO2 incubator. Later, colored formazan crystals were separated by removing supernatant and dissolved in 100 μL of DMSO. Reaction was allowed to stand for 1 h to ensure complete dissolution and absorbance was measured at 540 nm using microplate reader (Biotech USA, Elx 800).

[3] = system: Leishmania tropica kwh 23 promastigotes; assay: Photosensitizing effect against leishmania; type: cell-based; conditions: for Photosensitizing effect % growth inhibition, Sunlight with IR filter: 15 min; for Photosensitizing effect % growth inhibition, Sunlight: 15 min sunlight
Experimental: Photosensitizing effect of tributyltin (IV) compounds was determined in three parallel groups. Samples and controls were exposed for 15 min to sunlight (168 W/m^2 of sun intensity) or sunlight with IR filter or dark conditions. The relative intensity of sunlight was measured by a CCD spectrometer (Ocean Optics, model HR4000). Later, plates were incubated at 25 °C for 72 h and cell viability was determined by MTT assay as given above. In this assay, samples were tested at concentrations showing less than 55% inhibition in primary antileishmanial assay to exclude false positive.

Streptomyces 85E = assay: Protein kinase inhibition assay (Streptomyces disc assay); type: cell-based; conditions: for ZOI CZ (clear zone): (-) shows no ZOI; for ZOI BZ (bald zone): BZ indicative of PK inhibition; for MIC for PK inhibition: minimum inhibitory concentration
Experimental: Protein kinase inhibitory activity of the tributyltin (IV) compounds was measured against Streptomyces 85E strain using previously described protocol. Culture of Streptomyces 85E was refreshed in tryptic soy broth and 100 μL of this was swabbed on sterile ISP4 medium under aseptic conditions. […] Diameter (mm) of zone of inhibition (ZOI) around all samples and controls was measured as clear zone (CZ) and bald zone (BZ). […] BZ is indicative of PK inhibition.

HepG2 cell line = assay: Cytotoxicity against HepG2 cell line (SRB assay); type: cell-based, human; conditions: 72 h; for HepG2 % growth inhibition: 20 μg/mL; for HepG2 IC50: 3-fold dilutions
Experimental: Cytotoxicity was further evaluated against HepG2 cell line by sulforhodamine B (SRB) colorimetric assay. Dulbecco's Modified Eagle Medium (DMEM) supplemented with 10% FBS, 100 μg/mL streptomycin sulfate, 100 IU/mL penicillin G sodium and 0.25 μg/mL amphotericin B was used to culture HepG2 cells in CO2 (5%) incubator (Panasonic, Japan MCO-18 AC-PE) at 37 °C. An aliquot of 20 μL (1% DMSO in PBS) of samples was added to 180 μL of cell culture at an assay density of 1x10^5 cells/mL in 96-well plate. The plate was incubated at 37 °C for 72 h in CO2 incubator. Final concentration of compounds/standard was 20 μg/mL. Doxorubicin and 1% v/v DMSO in PBS ere used as positive and negative controls respectively. An equivalent number of cells in twelve wells of 96-well plate were incubated for 1 h at 37 °C and labeled as day zero control. Later, cells were fixed by adding 50 μL of cold 20% w/v TCA for 1 h at 4 °C. These were washed with tap water, air dried and stained with 50 μL of 0.057% w/v SRB in 1% v/v acetic acid for 30 min at room temperature. Cells were again washed with 1% v/v acetic acid, dried overnight and 200 μL of 10 mM Tris base (pH 10) was used to solubilize the bound dye for 1 h. Absorbance was measured at 515 nm using a microplate reader. Percentage of growth inhibition was calculated as: % inhibition = 100 – [(As – Ao) / (An – Ao) × 100], where, Ao, As and An are absorbance of day zero control, samples and negative control respectively. IC50 values were determined using 3-fold dilutions of the samples.

[4] = system: cellular metacyclic promastigotes; set-up: method as in PMID 19546361; conditions: cited from earlier work
[5] = system: axenic log-phase promastigotes; set-up: method as in PMID 19546361; conditions: cited from earlier work

SMILES	Reduction of antileishmanial activity in the presence of NaN3 [2] [%]	Reduction of antileishmanial activity in the presence of mannitol [2] [%]	THP-1 % growth inhibition (THP-1 cell line) [%]	Antileishmanial % growth inhibition (mortality, lethality) [1] [%]	Antileishmanial LC50 [1] [µg/mL]	Photosensitizing effect % growth inhibition, Control ([3]; 0.092 μg/mL) [%]	Photosensitizing effect % growth inhibition, Dark ([3]; 0.092 μg/mL) [%]	Photosensitizing effect % growth inhibition, Sunlight with IR filter ([3]; 0.092 μg/mL) [%]	Photosensitizing effect % growth inhibition, Sunlight ([3]; 0.092 μg/mL) [%]	ZOI CZ (clear zone) (Streptomyces 85E; 6.25 μg/disc) [mm]	ZOI BZ (bald zone) (Streptomyces 85E; 6.25 μg/disc) [mm]	ZOI CZ (clear zone) (Streptomyces 85E; 50 μg/disc) [mm]	MIC for PK inhibition (Streptomyces 85E) [μg/disc]	Isolated lymphocytes % growth inhibition (isolated lymphocytes)	HepG2 % growth inhibition (HepG2 cell line) [%]	HepG2 IC50 (HepG2 cell line) [µg/mL]	further results
C[C@@H]1[C@H](O)[C@@H](C)/C=C/C=C/C=C/C=C/C=C/C=C/C=C/[C@H](O[C@@H]2O[C@H](C)[C@@H](O)[C@H](N)[C@@H]2O)C[C@@H]2O[C@](O)(C[C@@H](O)C[C@@H](O)[C@H](O)CC[C@@H](O)C[C@@H](O)CC(=O)O[C@H]1C)C[C@H](O)[C@H]2C(=O)O [Amphotericin B, reference compound]	16	10															mortality at 20 µg/mL ([1]; Leishmania tropica, read-out: Antileishmanial % growth inhibition (mortality, lethality)): 100%
CCC[CH2][Sn]([CH2]CCC)([CH2]CCC)[O]C(=O)/C=C\C(=O)NC1CCCCC1 [Ch-442, tributylstannyl (Z)-4-(cyclohexylamino)-4-oxobut-2-enoate]	22	38.2	44.6 ± 1.18	95.8 ± 2.16	0.088 ± 0.009	46.1 ± 0.56	44.18 ± 1.16	49.25 ± 0.63	40.5 ± 0.12	10 ± 0.74	29 ± 0.78	40 ± 1.17	0.391 ± 0.006				Isolated lymphocytes IC50 (isolated lymphocytes): 14.9 ± 0.25 µg/mL
CCC[CH2][Sn]([CH2]CCC)([CH2]CCC)[O]C(=O)CCC(=O)Nc1ccc(C(=O)[O][Sn]([CH2]CCC)([CH2]CCC)[CH2]CCC)cc1 [Ch-448, tributylstannyl 4-(4-oxo-4-((tributylstannyl)oxy)butanamido)benzoate]			43.1 ± 2.29	96.5 ± 2.67	0.576 ± 0.088						25 ± 1.75	31 ± 1.05	0.781 ± 0.002	23.6 ± 1.07ǂ %	97.1 ± 2.34	3.45 ± 0.63	Photosensitizing effect % growth inhibition, Control ([3]; 0.55 μg/mL): 54.65 ± 2.75%; Photosensitizing effect % growth inhibition, Dark ([3]; 0.55 μg/mL): 50.16 ± 1.19%; Photosensitizing effect % growth inhibition, Sunlight with IR filter ([3]; 0.55 μg/mL): 52.9 ± 1.17%; Photosensitizing effect % growth inhibition, Sunlight ([3]; 0.55 μg/mL): 49.7 ± 0.89%
CCC[CH2][Sn]([CH2]CCC)([CH2]CCC)[O]C(=O)/C=C\C(=O)Nc1ccccc1 [Ch-458, tributylstannyl (Z)-4-oxo-4-(phenylamino)but-2-enoate]			21.2 ± 1.57	97.8 ± 1.23	0.256 ± 0.064	35.2 ± 1.78	36.7 ± 0.74	30.25 ± 0.17	42.7 ± 1.35	12 ± 1.25	31 ± 1.37	30 ± 1.2	0.195 ± 0.001	14.8 ± 0.13ǂ %	98.7 ± 3.56	1.58 ± 0.07	
O.O.O.O.O.O.O.O.O.O=C([O-])[C@@H]1[O][Sb](=[O])([O][Sb]2(=[O])[O][C@H]([C@H](O)CO)[C@H](O)[C@H](C(=O)[O-])[O]2)[O][C@H]([C@H](O)CO)[C@@H]1O.[Na+].[Na+].[Na+] (stereo partly shown) [sodium stibogluconate]																	IC50 [4]: 22 µg/mL; IC50 [5]: 64 µg/mL
